# Test results published in ChEMBL document CHEMBL1146987, “Ketopiperazine-based renin inhibitors: optimization of the "C" ring” (Bioorg Med Chem Lett, 2006).
# Assays:
# CYP3A4 = CYP3A4 (Homo sapiens, UniProt P08684); assay: Inhibition of CYP3A4 at 3 uM; format: ADME
# Cytochrome P450 3A4 = Cytochrome P450 3A4 (Homo sapiens, UniProt P08684); assay: Inhibition of CYP3A4 using BFC fluorogenic substrate; format: ADME
# Renin = molecular target: T1, Renin (Homo sapiens, UniProt P00797); assay: Inhibition of renin
# T1 sequence (P00797 whole entry): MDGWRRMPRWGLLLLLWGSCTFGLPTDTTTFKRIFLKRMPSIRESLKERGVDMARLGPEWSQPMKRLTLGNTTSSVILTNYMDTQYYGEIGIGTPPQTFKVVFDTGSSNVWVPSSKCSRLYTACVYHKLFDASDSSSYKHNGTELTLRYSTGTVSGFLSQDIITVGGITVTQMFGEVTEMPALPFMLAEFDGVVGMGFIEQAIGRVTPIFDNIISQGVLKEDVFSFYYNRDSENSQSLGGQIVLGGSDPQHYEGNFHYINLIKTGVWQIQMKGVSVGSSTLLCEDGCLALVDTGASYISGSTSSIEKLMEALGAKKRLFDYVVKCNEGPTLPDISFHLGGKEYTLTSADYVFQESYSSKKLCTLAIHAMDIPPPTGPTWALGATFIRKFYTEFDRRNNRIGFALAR
# Sequence of Cytochrome P450 3A4 (P08684 whole entry): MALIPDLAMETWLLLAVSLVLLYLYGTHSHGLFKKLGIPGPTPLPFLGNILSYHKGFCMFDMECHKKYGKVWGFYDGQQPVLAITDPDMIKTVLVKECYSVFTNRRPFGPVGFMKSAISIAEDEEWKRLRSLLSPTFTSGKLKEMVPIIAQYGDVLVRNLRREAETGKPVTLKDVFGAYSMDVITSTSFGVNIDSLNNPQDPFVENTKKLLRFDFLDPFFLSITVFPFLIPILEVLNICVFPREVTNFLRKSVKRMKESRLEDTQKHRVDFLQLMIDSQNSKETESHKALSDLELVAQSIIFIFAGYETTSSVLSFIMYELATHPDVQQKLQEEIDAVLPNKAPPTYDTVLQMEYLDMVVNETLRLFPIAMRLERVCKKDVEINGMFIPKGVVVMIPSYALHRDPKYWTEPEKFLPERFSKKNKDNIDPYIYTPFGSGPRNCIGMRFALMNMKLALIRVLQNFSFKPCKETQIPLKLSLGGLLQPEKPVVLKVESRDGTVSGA
# Sequence of CYP3A4 (P08684 whole entry): as above
SMILES,inhibition at 3 µM (CYP3A4) [%],IC50 (Cytochrome P450 3A4) [nM],IC50 (Renin) [nM]
CCC(=O)OCCN1CCCc2ccc(OC[C@H]3CNCC(=O)N3c3ccc(OCCCOCc4ccccc4OC)cc3)cc21,96,–,–
COc1ccccc1COCCCOc1ccc(N2C(=O)CNC[C@@H]2CSc2ccc3c(c2)N(CC(=O)O)C(=O)CO3)cc1,–,15000,1200
COc1ccccc1COCCCOc1ccc(N2C(=O)CNC[C@@H]2COc2ccc3c(c2)N(CC(=O)O)C(=O)CO3)cc1,–,25000,364
COc1ccccc1COCCCOc1ccc(N2C(=O)CNC[C@@H]2COc2ccc3c(c2)N(CCN2CCOC2=O)CCC3)cc1,–,3790,> 1000
COc1ccccc1COCCCOc1ccc(N2C(=O)CNC[C@@H]2COc2ccc3c(c2)N(CCOC(C)=O)CCC3)cc1,87,–,–
COCCCN1C(=O)COc2ccc(OC[C@H]3CNCC(=O)N3c3ccc(OCCCOCc4ccccc4OC)cc3)cc21,95,–,0.68
COc1ccccc1COCCCOc1ccc(N2C(=O)CNC[C@@H]2COc2ccc3c(c2)N(CCC(=O)O)CCC3)cc1,–,10000,450

# Continued by falling IC50 (Cytochrome P450 3A4), values first:
inhibition at 3 µM (CYP3A4) [%],IC50 (Cytochrome P450 3A4) [nM],IC50 (Renin) [nM],SMILES
71,455,–,COc1ccccc1COCCCOc1ccc(N2C(=O)CNC[C@@H]2COc2ccc3c(c2)N(CCCO)CCC3)cc1
92,82,0.29,COc1ccccc1COCCCOc1ccc(N2C(=O)CNC[C@@H]2COc2ccc3c(c2)N(CCNC(C)=O)CCC3)cc1
92,54,550,COc1ccccc1COCCCOc1ccc(N2C(=O)CNC[C@@H]2COc2ccc3c(c2)N(CCOC(=O)C(C)C)CCC3)cc1
–,42,606,COc1ccccc1COCCCOc1ccc(N2C(=O)CNC[C@@H]2COc2ccc3c(c2)N(CCN2CCCC2=O)CCC3)cc1
92,35,–,COCCCN1C(=O)CCc2ccc(OC[C@H]3CNCC(=O)N3c3ccc(OCCCOCc4ccccc4OC)cc3)cc21
–,18,4,COc1ccccc1COCCCOc1ccc(N2C(=O)CNC[C@@H]2COc2ccc3c(c2)N(CCN(C)C(C)=O)CCC3)cc1
95,14,–,COCCCN1C(=O)COc2ccc(SC[C@H]3CNCC(=O)N3c3ccc(OCCCOCc4ccccc4OC)cc3)cc21
96,12,–,COCCCN1CCCc2ccc(OC[C@H]3CNCC(=O)N3c3ccc(OCCCOCc4ccccc4OC)cc3)cc21
